≈ marks a conversion by molar mass, not a printed value. Where two headings read alike, the source gives them in different places. The star is where a group is joined. Decanoyl = CCCCCCCCCC(=O)*; CH2Cl = ClC*
Columns and labels:
[1] = system: mouse embryo fibroblasts Balb/c 3T3 clone 31; experiment: In vitro 3T3 NRU phototoxicity test; format: cell-based; settings: BALB/c3T3, light or radiation study, read-out: Cl50 (the source's name)
From the text: The principle of the test is the comparison of the cytotoxicity of the protein hydrolysate in accordance with Example 1 in the presence and in the absence of a non-cytotoxic dose of UVA, on cells under culture. […] The cells used were mouse embryo fibroblasts from the Balb/c 3T3 clone 31 (ATCC-CCL163) line. The positive control was a solution of chlorpromazine (CAS number: 69-09-0). The negative control was a diluent for the test and reference extract (buffered saline solution+/−1% solvent). […] The fibroblasts were trypsinized and two 96-well culture plates were inoculated in an amount of 100 μL of a 2×10^5 cells/mL (i.e. 2×10^6 cells per well) cell suspension in complete culture medium. The inoculated plates were incubated in an oven for 24 hours at 37° C., 5% CO2. At the end of the incubation, semi-confluence of the cell mat was verified. […] The spectral irradiation of the test device was measured in the wavelength range 250 to 700 nanometers with a calibrated spectroradiometer.
One of the 2 plates was irradiated with its cover at ambient temperature, and the other plate was protected from UVA and stored at ambient temperature for the irradiation period. […] The next day, the cell viability (growth, morphology, integrity of the monolayer) was evaluated by observations using a phase contrast microscope. […] The absorbances were measured at 450 nm.

recombinant human furin = recombinant human furin (Homo sapiens, UniProt P09958); experiment: Furin convertase activity, cleavage of fluorescent substrate; format: biochemical; settings: 100 nM
Sequence of recombinant human furin (P09958 108-794): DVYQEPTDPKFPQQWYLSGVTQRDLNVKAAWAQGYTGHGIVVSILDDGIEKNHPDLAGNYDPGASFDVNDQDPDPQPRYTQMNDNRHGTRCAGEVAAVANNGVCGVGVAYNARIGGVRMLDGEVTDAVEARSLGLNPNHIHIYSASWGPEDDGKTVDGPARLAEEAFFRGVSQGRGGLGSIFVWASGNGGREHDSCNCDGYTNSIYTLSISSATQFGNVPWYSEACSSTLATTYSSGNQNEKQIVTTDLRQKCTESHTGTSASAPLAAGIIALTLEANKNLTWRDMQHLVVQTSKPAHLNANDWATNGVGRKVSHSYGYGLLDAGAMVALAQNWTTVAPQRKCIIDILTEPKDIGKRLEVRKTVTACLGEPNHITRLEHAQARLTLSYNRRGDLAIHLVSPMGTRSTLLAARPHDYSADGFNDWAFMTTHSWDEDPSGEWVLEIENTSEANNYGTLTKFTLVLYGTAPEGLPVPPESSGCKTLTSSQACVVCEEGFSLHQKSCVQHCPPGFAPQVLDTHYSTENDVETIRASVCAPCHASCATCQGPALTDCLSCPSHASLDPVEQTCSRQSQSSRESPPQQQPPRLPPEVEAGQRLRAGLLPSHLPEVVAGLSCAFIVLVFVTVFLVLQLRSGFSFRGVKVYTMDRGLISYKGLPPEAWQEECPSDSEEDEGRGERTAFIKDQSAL
Experimental: Protocol: The study was carried out using a recombinant human furin, which catalyzes cleavage of a specific fluorescent reference substrate.
100 nM decanoyl-Arg-Val-Lys-Arg-CMK was used as a reference inhibitor for the activity of furin.
The furin was pre-incubated for 10 minutes at ambient temperature in the absence (control) or in the presence of a reference product, or of increasing concentrations of the test compound:
“Peregrina protein hydrolysate”; 0.02; 0.2 and 2% (v/v).
At the end of the pre-incubation step, a furin substrate was added and the experimental conditions were incubated once again at ambient temperature away from light for 5 minutes. All of the experiments were carried out in triplicate. […]
Cleavage of the fluorescent furin substrate was monitored for 5 minutes after addition of the substrate by reading the fluorescence at 485 nm/535 nm. […]
Evaluation protocol: Cleavage of the fluorescent furin substrate was monitored for 5 minutes after addition of the substrate by recording the fluorescence at 485 nm/535 nm. […]. […] The statistical significance of the difference observed between the “Control” and “Reference product” groups was evaluated by a Student test (p<0.001). The statistical significance of the difference observed between the “Control” and “Test compound” groups was evaluated by a one-way ANOVA, followed by a Holm-Sidak test (p<0.05). […]

DKK-1 = DKK-1 synthesis and release by normal human fibroblasts, ELISA, 48 h; format: cell-based; settings: 100 nM
Experimental: The aim of this study is to evaluate the effect of the peregrina protein hydrolysate on the synthesis and release of DKK-1 in a model compound of normal human fibroblasts in a monolayer culture.
Protocol: Human fibroblast cells were obtained from a donor. In order to carry out the experiments, the fibroblasts were cultured in a monolayer to confluence. 100 nM dexamethasone was used as a reference inducer for the synthesis and release of DKK-1. The […] were incubated for 48 hours in the absence (control) or in the presence of the reference product or of the test product: “peregrina protein hydrolysate”: 0.01%; 0.1% and 0.5% (v/v).
At the end of the incubation, the incubation media were removed in order to carry out the DKK-1 liberation method. […]
At the end of the incubation period of 48 hours, the DKK-1 liberated into the incubation medium was quantified with the aid of a sensitive and specific ELISA kit.
At the end of the incubation period, the proteins contained in the cell lysates were quantified with the aid of a spectrocolorimetric method (Bradford method). […]
The level of significance between the “control” and the “reference product” was evaluated with the aid of a Student test (p<0.05).
The level of significance between the “Control” and the “test product” was evaluated by a single factor analysis of variance (one-way ANOVA) followed by a Holm-Sidak test (p<0.05).

CN(C)CCCN1c2ccccc2Sc2ccc(Cl)cc21 [Chlorpromazine, chlorpromazine]
IC50 ([1]; in the absence of UVA): 7 to 90 µg/mL (≈ 22 to 282 µM) | IC50 ([1]; in the presence of UVA): 0.1 to 2 µg/mL

decanoyl-Arg-Val-Lys-Arg-CMK (Decanoyl-RVKR-CH2Cl)
Inhibition of the activity of furin (recombinant human furin): 97.9%

C[C@@H]1C[C@H]2[C@@H]3CCC4=CC(=O)C=C[C@]4(C)[C@@]3(F)[C@@H](O)C[C@]2(C)[C@@]1(O)C(=O)CO [Dexamethasone, dexamethasone]
Increase of the DKK-1 liberated compared with the Control (DKK-1): 181.8%
